Where two headings read alike, the source gives them in different places. Non-standard residues stand in square brackets, D forms with d. Residues, ends and D or L forms follow the SMILES beside them. No end group written: not given here. Arg(NO2) = N=C(NCCC[C@H](N)C(=O)O)N[N+](=O)[O-]; Aib = CC(C)(N)C(=O)O
Columns and labels:
IκB = experiment: LPS-induced phosphorylation of IκB in BV2 microglia (Western blot); assay type: cell-based, mouse; details: 100 ng/mL LPS, 5 μM COG133, FIG. 2A
Procedure: To determine whether COG peptides modulated the PI-3 kinase/Akt pathway and subsequent activation of NFκB, the phosphorylation state of proteins in the pathway was analyzed in cells exposed to bacteria or a bacterial antigen (lipopolysaccharide) in the absence and presence of COG peptides. In a first series of experiments, mouse BV2 microglia in six well plates were incubated with 100 ng/mL of LPS alone or in the presence of 5 μM COG133 (SEQ ID NO: 1) peptide. Cells were lysed and a clarified extract prepared by centrifugation. Polyacrylamide gels were loaded with 30 μg of extract per lane and run in SDS buffer. […] Membranes were then probed with an anit-phospho-IκBα antibody. Membranes were developed with Enhanced Chemiluminescence substrates (GE healthcare) and visualized by exposure to film. Membranes were then stripped and reprobed for total IκB using a non phospho-specific anti-IκBα antibody. A duplicate blot was probed with anti-GAPDH antibodies.

NFκB = NFκB nuclear translocation in LPS-stimulated BV2 microglial cells (gel shift); assay type: cell-based, mouse; details: nuclear extracts, FIG. 2B
Procedure: In the dephosphorylated state, IκB binds to the transcription factor NFκB and prevents it from translocating to the nucleus to activate transcription of pro-survival proteins. […] A radiolabeled oligonucelotide containing a NFκB binding site was added to the proteins from the nuclear extracts and the proteins were subsequently separated by non-denaturing polyacrylamide gel electrophoresis. The amount of NFκB present in the nuclear extracts was detected by autoradiography (FIG. 2B). Nuclear NFκB was reduced in the presence of COG133 providing further evidence that this signal transduction cascade is suppressed in cells treated with ApoE peptides.

B-CLL cells = experiment: Cytotoxicity on B-CLL cells from CLL patients (MTS assay); details: for Fold Change: EC50 relative to COG056 control
Procedure: To determine whether COG peptides could counteract the overactivation of the Akt/NFkB pathway in B-CLL cells and effectively induce apoptosis, cytotoxicity testing was performed on freshly isolated B-CLL cells from CLL patients with COG peptides. Blood from CLL patients was collected and CD5+/CD19+ CLL cells were isolated using the RosetteSep™ Human B Cell Enrichment Cocktail. This method depletes whole blood of T cells, monocytes, and NK cells using a proprietary antibody cocktail containing anti-CD14, anti-CD2 and anti-CD16 antibodies to remove T cells, monocytes, and NK cells, respectively. The antibody cocktail crosslinks unwanted cells in human whole blood to multiple red blood cells forming immunorosettes thereby increasing the density of the rosetted cells, such that they pellet along with the free RBCs when centrifuged over a buoyant density medium such as Ficoll-Paque®. The highly enriched B-cell or B-CLL cells are left at the interface between Ficoll and the plasma.
COG peptides were applied to the isolated B-CLL cells (0.25×10^6 cells/well in a 96 well plate) for 72 hours, after which viable cells were assessed using the MTS assay ([…]).
Additional B-CLL cells and peripheral blood mononuclear cells (PBMC; i.e., normal B cells) were isolated from leukemia patients and normal volunteers, respectively, and were treated with a range of COG112 concentrations.

microglial cells = details: relative to COG133, microglial cells; cited from earlier work
PP2A = target: T1, PP2A (Mus musculus, UniProt P63330); experiment: PP2A activity in RAW cells (immunoprecipitation / phosphate release); assay type: cell-based; details: 30 minutes, 2 μM COG112, 10 nM okadaic acid, FIG. 3
T1 construct: cells were lysed and PP2A was immunoprecipitated by adding an antibody targeted to the catalytic C-subunit of PP2A; endogenous in cells; host or cells: mouse macrophagic RAW cells
T1 sequence (P63330 whole entry): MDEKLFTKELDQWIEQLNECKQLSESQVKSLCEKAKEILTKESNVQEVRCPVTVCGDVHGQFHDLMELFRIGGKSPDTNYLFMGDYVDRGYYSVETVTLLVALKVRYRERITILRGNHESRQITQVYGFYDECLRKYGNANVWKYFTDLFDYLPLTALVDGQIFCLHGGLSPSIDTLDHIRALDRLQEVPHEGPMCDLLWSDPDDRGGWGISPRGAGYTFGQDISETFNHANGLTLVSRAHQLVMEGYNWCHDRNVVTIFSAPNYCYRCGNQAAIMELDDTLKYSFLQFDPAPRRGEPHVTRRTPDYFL
Procedure: Mouse macrophagic RAW cells were incubated with either 2 μM COG112 (SEQ ID NO: 2), 10 nM okadaic acid (an inhibitor of PP2A), or okadaic acid and COG112. After 30 minutes, cells were lysed and PP2A was immunoprecipitated by adding an antibody targeted to the catalytic C-subunit of PP2A. Half of the immunoprecipitate was separated by SDS-PAGE, blotted on to nitrocellulose, and probed with an anti-PP2AC antibody. The remaining portion was assayed for activity by adding 125 μL assay cocktail containing a phospho-threonine substrate peptide to the immunoprecipitated enzyme. After incubating at 37° C. with shaking, a 25 μL aliquot was removed and added to an ammonium molybdate solution (Upstate) that chelates free phosphate and changes color upon chelate formation. Aliquots were removed at various time intervals and the amount of free phosphate released from the peptide was determined by comparison to a phosphate standard curve. The rate of phosphate release was determined by linear fit to the time course data and was normalized to the relative PP2A concentration. […] PP2A activity was reduced in the presence of okadaic acid alone as expected. […] Thus, the active pool of PP2A in a cell can be regulated by ApoE peptides.

[1] = B-CLL cells, 72 hours, MTS assay

CC(=O)N[C@@H](CC(C)C)C(=O)N[C@@H](CCCNC(=N)N)C(=O)N[C@H](C(=O)N[C@@H](CCCNC(=N)N)C(=O)N[C@@H](CC(C)C)C(=O)N[C@@H](C)C(=O)N[C@@H](CO)C(=O)N[C@@H](Cc1c[nH]cn1)C(=O)N[C@@H](CC(C)C)C(=O)N[C@@H](CCCNC(=N)N)C(=O)N[C@@H](CCCCN)C(=O)N[C@@H](CC(C)C)C(=O)N[C@@H](CCCNC(=N)N)C(=O)N[C@@H](CCCCN)C(=O)N[C@@H](CCCNC(=N)N)C(=O)N[C@@H](CC(C)C)C(=O)N[C@@H](CC(C)C)C(N)=O)C(C)C [COG133]
LPS-induced phosphorylation of IκB (IκB): reduces | nuclear NFκB (NFκB): reduced | cytotoxic activity compared in words (B-CLL cells; [1]): slightly improved activity relative to the COG056 | Fold Change (B-CLL cells): 2.9

CC(C)C[C@H](NC(=O)[C@H](CC(C)C)NC(=O)[C@H](CCCNC(=N)N)NC(=O)[C@H](CCCCN)NC(=O)[C@H](CCCNC(=N)N[N+](=O)[O-])NC(=O)[C@H](CC(C)C)NC(=O)[C@H](CCCNC(=N)N)NC(=O)[C@H](CCCCN)NC(=O)[C@H](CC(C)C)NC(=O)C(C)(C)NC(=O)[C@H](CO)NC(=O)[C@H](C)NC(=O)[C@H](CC(C)C)NC(=O)[C@H](CCCNC(=N)N)NC(=O)[C@@H](NC(=O)[C@H](CCCNC(=N)N)NC(=O)[C@@H](N)CC(C)C)C(C)C)C(=O)O [COG248, LRVRLAS(Aib)LKRL(nitroR)KRLL] (H-LRVRLAS[Aib]LKRL[Arg(NO2)]KRLL-OH)
cytotoxic activity compared in words (B-CLL cells; [1]): enhanced activity compared to COG133 | Fold Change (B-CLL cells): 5.5

CC(=O)N[C@@H](C)C(=O)N[C@@H](CO)C(=O)NC(C)(C)C(=O)N[C@@H](CC(C)C)C(=O)N[C@@H](CCCNC(=N)N)C(=O)N[C@@H](CCCCN)C(=O)N[C@@H](CC(C)C)C(=O)NC(C)(C)C(=O)N[C@@H](CCCCN)C(=O)N[C@@H](CCCNC(=N)N)C(=O)N[C@@H](CC(C)C)C(=O)N[C@@H](CC(C)C)C(N)=O [COG1410, Ac-AS-Aib-LRKL-Aib-KRLL-NH2] (Ac-AS[Aib]LRKL[Aib]KRLL-NH2)
cytotoxic activity compared in words (B-CLL cells): no difference in potency | Fold Change (B-CLL cells): 2.3 | EC50 (B-CLL cells; read-out: EC50 (cytotoxicity of COG compounds on B-CLL cells), isolated B-CLL cells, 72 hours, MTS assay): 5.7 ± 3 µM | potency for suppressing NO production (microglial cells): improved potency

C=C1[C@@H](O)[C@@H]2O[C@]3(CC[C@H](/C=C/[C@@H](C)[C@@H]4CC(C)=C[C@@]5(O[C@H](C[C@@](C)(O)C(=O)O)CC[C@H]5O)O4)O3)CC[C@H]2O[C@@H]1[C@@H](O)C[C@H](C)[C@H]1O[C@@]2(CCCCO2)CC[C@H]1C [okadaic acid, reference compound]
PP2A activity (rate of phosphate release) (PP2A): reduced

LLRKRLKRLHSALRVRL [COG056, reference compound]
Fold Change (B-CLL cells): 1.0 | EC50 (B-CLL cells; human, 72 hours): 12.9 ± 4.6 µM
